Assay results taken from US10034886B2, “GLP-1 receptor modulators” (Celgene International II SÀRL, priority 2014, dated 2018).

target: T1, GLP-1R (Homo sapiens, UniProt P43220); test: EC20 GLP-1(9-36) PAM cAMP assay: dose response of compound in the presence of fixed concentration of GLP-1(9-36); format: cell-based; settings: GLP-1R CRE-bla CHO-K1 cells, compound dose response with fixed concentration of GLP-1(9-36), read-out: EC20 GLP-1(9-36) PAM EC50
T1 construct: host or cells: GLP-1R CRE-bla CHO-K1 cells
Method: EC20 GLP-1(9-36) PAM cAMP Assay: Dose Response of Compound in the Presence of Fixed Concentration of GLP-1 (9-36).
GLP-1R CRE-bla CHO-K1 cells cultured in growth medium (DMEM-High glucose, 10% dialyzed FBS, 0.1 mM NEAA, 25 mM Hepes, 100 U/mL penicillin/100 μg/mL streptomycin, 5 μg/mL Blasticidin, 600 μg/mL Hygromycin) were trypsinized and plated in suspension into 384 well white flat bottom plates at 5000 cells/well in 12 μL assay buffer (Hanks Balanced Salt solution, 10 mM hepes, 0.1% BSA, pH 7.4). A 5× compound dose response curve (12-point) was generated in assay buffer containing 1.5 mM IBMX, 4% DMSO. GLP-1(9-36) was diluted to 4.2 μM in assay buffer containing 1.5 mM IMBX and 4% DMSO. The 5× compound dose response was added (3 μL), followed by 0.5 μL of GLP-1(9-36) and cells were incubated for 30 min at 37° C. Direct detection of cAMP was carried out using DiscoveRx HitHunter cAMP kit according to manufacturer's instructions and luminescence was read using a SpectraMax M5 plate reader. Luminescence was converted to total cAMP using a cAMP standard curve and data was analyzed by non-linear regression to determine the EC50 and Emax.
GLP-1(7-36): […]-NH2 (SEQ ID NO: 2). GLP-1(9-36): […]-NH2 (SEQ ID NO: 3). GLP-1(7-36) was purchased from GenScript. GLP-1(9-36) was purchased from Biopeptide Co., Inc.
The EC20GLP-1(9-36) PAM Activity range is denoted as follows: + denotes activity <0.8 μM, ++ denotes activity between 0.8 and 2.5 μM, +++ denotes activity between 2.5 and 5 μM, and ++++ denotes activity 5 to 10 μM.

T1 sequence (P43220 24-463): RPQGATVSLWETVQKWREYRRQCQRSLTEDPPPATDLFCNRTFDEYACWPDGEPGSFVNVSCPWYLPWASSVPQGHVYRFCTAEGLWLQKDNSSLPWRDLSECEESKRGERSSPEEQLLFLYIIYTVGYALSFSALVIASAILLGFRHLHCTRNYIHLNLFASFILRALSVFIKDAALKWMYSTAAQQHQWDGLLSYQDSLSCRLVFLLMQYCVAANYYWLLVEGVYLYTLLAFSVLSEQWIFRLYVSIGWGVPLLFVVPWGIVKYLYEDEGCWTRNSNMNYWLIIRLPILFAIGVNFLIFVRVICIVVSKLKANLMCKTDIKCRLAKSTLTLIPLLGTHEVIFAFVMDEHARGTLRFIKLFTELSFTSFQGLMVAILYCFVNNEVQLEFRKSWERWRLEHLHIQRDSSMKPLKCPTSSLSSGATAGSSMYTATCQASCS
T1 sequence (P01275 100-127 partner limits assumed): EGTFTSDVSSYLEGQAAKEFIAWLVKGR

Compared with `CCCc1ccc(C(=O)N[C@@H](Cc2ccc(-c3ncc(-c4ccc(OCCCC(C)C)cc4)cn3)cc2)C(=O)N2CC(C(=O)O)C2)cc1` [Compound 1232], `CCc1ccc(C(=O)N[C@@H](Cc2ccc(-c3ncc(-c4ccc(OCCCC(C)C)cc4)cn3)cc2)C(=O)N2CC(C(=O)O)C2)nc1` [Compound 1245] is higher in EC50: 800 to 2500 nM for the first, 2500 to 5000 nM for the second. The first is the more potent here.

`CCCCCc1ccc(-c2ccc(-c3cnc(-c4ccc(C[C@H](NC(=O)c5ccc(C(C)(C)C)s5)C(=O)N[C@H](C)C(=O)O)cc4)nc3)cc2)cc1` [Compound 1308] and `CC(=O)c1ccc(-c2ccc(-c3cnc(-c4ccc(C[C@H](NC(=O)c5ccc(C(C)(C)C)s5)C(=O)O)cc4)nc3)cc2)cc1` [Compound 1352] fall in the same range of EC50: 800 to 2500 nM for the first, 800 to 2500 nM for the second.

First: CN(C)c1ccc(C2CCN(c3cnc(-c4ccc(CC(NC(=O)c5ccc(C(C)(C)C)s5)C(=O)N5CC(C(=O)O)C5)cc4)nc3)CC2)cc1 (stereo not drawn) [Compound 1517]
Second: CCCCc1ccc(C2CCN(c3cnc(-c4ccc(C[C@H](NC(=O)c5ccc(C(C)(C)C)s5)C(=O)N5CC(C(=O)O)C5)cc4)nc3)C2)cc1 (stereo partly drawn) [Compound 1505]
The EC50 of the first is lower: under 800 nM for the first, 800 to 2500 nM for the second. The first is the more potent here.

First: CC[C@H]1CC[C@H](c2ccc(-c3cnc(-c4ccc(C[C@H](NC(=O)c5ccc(Cl)cc5)C(=O)O)cc4)nc3)cc2)CC1 [Compound 1386]
Second: CC[C@H]1CC[C@H](c2ccc(-c3cnc(-c4ccc(C[C@H](NC(=O)c5ccc(C(C)(C)C)s5)C(=O)NCCC(=O)O)cc4)nc3)cc2)CC1 [Compound 1324]
The EC50 of the first is higher: 800 to 2500 nM for the first, under 800 nM for the second. The second is the more potent here.

`Cc1cc(-c2ccc(-c3cnc(-c4ccc(C[C@H](NC(=O)c5ccc(C(C)(C)C)s5)C(=O)N5CC(C(=O)O)C5)cc4)nc3)c(F)c2)ccc1OC(F)(F)F` [Compound 1219] and `CC(C)(C)c1ccc(C(=O)N[C@@H](Cc2ccc(-c3ncc(-c4ccc(-c5ccc(C6CCC6)cc5)cc4F)cn3)cc2)C(=O)N2CC(C(=O)O)C2)s1` [Compound 1210] cannot be ordered by EC50: under 800 nM for the first, under 800 nM for the second.

First: CC(C)c1ccc(-c2ccc(-c3cnc(-c4ccc(C[C@H](NC(=O)c5ccc(C(C)(C)C)s5)C(=O)N5CC(C(=O)O)C5)cc4)nc3)cc2)cc1 [Compound 1395]
Second: CCCCc1ccc(-c2ccc(-c3cnc(-c4ccc(C[C@H](NC(=O)c5ccc(C(C)(C)C)s5)C(=O)O)cc4)nc3)c(F)c2)cc1 [Compound 1361]
The EC50 of the first is lower: under 800 nM for the first, 800 to 2500 nM for the second. The first is the more potent here.

`CCC[C@H]1CC[C@H](C2CCN(c3cnc(-c4ccc(CC(NC(=O)c5ccc(C(C)(C)C)s5)C(=O)NS(=O)(=O)CCNC(=O)OC(C)(C)C)cc4)nc3)CC2)CC1` (stereo partly drawn) [Compound 1548] and `CCC1CCC(C2CCN(c3cnc(-c4ccc(C[C@H](NC(=O)c5ccc(C(C)(C)C)s5)C(=O)N5CC(C(=O)O)C5)cc4)nc3)CC2)CC1` (stereo partly drawn) [Compound 1429] cannot be ordered by EC50: under 800 nM for the first, under 800 nM for the second.

Work on `CCC[C@H]1CC[C@H](C2CCN(c3cnc(-c4ccc(C[C@H](NC(=O)c5ccc(S(=O)(=O)C(C)C)cc5)C(=O)N5CC(C(=O)O)C5)cc4)nc3)CC2)CC1` [Compound 1523] yielded an EC50 of 800 to 2500 nM.

same assay, conditions: dose response of compound in presence of fixed concentration of GLP-1(9-36), GLP-1R CRE-bla CHO-K1 cells, read-out: EC20 GLP-1(9-36) PAM EC50

`CCCCCCCOc1ccc(-c2cnc(-c3ccc(C[C@H](NC(=O)c4ccc(C(C)(C)C)cc4)C(=O)N[C@H](CC)C(=O)O)cc3)nc2)cc1` [Compound 498] and `CCCCCCCOc1ccc(-c2cnc(-c3ccc(C[C@H](NC(=O)c4ccc(C(C)(C)C)cc4)C(=O)NC(CN(C)C)C(=O)O)cc3)nc2)cc1` (stereo partly drawn) [Compound 447] fall in the same range of EC50: 800 to 2500 nM for the first, 800 to 2500 nM for the second.

First: CCCCCCCc1noc(-c2cnc(-c3ccc(C[C@H](NC(=O)c4ccc(C(C)(C)C)cc4)C(=O)NCCC(=O)O)cc3)nc2)n1 [Compound 754]
Second: CCCCCCCOc1ccc(-c2cnc(-c3ccc(C[C@H](NC(=O)c4ccc(C(C)(C)C)cc4)C(=O)NCCC(=O)O)cc3)nc2)cc1C [Compound 698]
The EC50 of the first is higher: 5000 to 10000 nM for the first, under 800 nM for the second.

First: C[C@@H](NC(=O)[C@H](Cc1ccc(-c2ncc(-c3ccc(C(=O)NCC4CCCCC4)cc3)cn2)cc1)NC(=O)c1ccc(C(C)(C)C)s1)C(=O)O [Compound 1043]
Second: C[C@@H](NC(=O)[C@H](Cc1ccc(-c2ncc(-c3ccc([C@H]4CC[C@H](C(C)(C)C)CC4)cc3)cn2)cc1)NC(=O)c1ccc(C(C)(C)C)s1)C(=O)O [Compound 1143]
The EC50 of the first is higher: 2500 to 5000 nM for the first, under 800 nM for the second.

First: Cc1cccc(NC(=O)c2cccc(-c3cnc(-c4ccc(C[C@H](NC(=O)c5ccc(C(C)(C)C)s5)C(=O)N[C@H](C)C(=O)O)cc4)nc3)c2)c1C [Compound 996]
Second: Cc1cccc(Oc2ccc(-c3cnc(-c4ccc(C[C@H](NC(=O)c5ccc(C(C)(C)C)s5)C(=O)N[C@H](C)C(=O)O)cc4)nc3)cn2)c1 [Compound 1016]
The EC50 of the first is lower: 800 to 2500 nM for the first, 5000 to 10000 nM for the second. The first is the more potent here.

`CCCCCCCOc1ccc(-c2cnc(-c3ccc(C[C@H](NC(=O)c4ccc(C(C)(C)C)s4)C(=O)NCC(=O)NCCC(=O)O)cc3)nc2)cc1` [Compound 487] and `CCCCCCCOc1ccc(-c2cnc(-c3ccc(C[C@H](NC(=O)c4ccc(C(C)(C)C)s4)C(=O)N[C@@H](CC(=O)NCC(=O)O)C(=O)O)cc3)nc2)cc1` [Compound 515] cannot be ordered by EC50: under 800 nM for the first, under 800 nM for the second.

Compared with `CCCCCCCOc1ccc(-c2cnc(-c3ccc(C[C@H](NC(=O)c4ccc(C(C)(C)C)s4)C(=O)N[C@H](CCN)C(=O)O)cc3)nc2)cc1` [Compound 411], `CCCCCCCOc1ccc(-c2cnc(-c3ccc(C[C@H](NC(=O)c4ccc(C(C)(C)C)s4)C(=O)N[C@H](C(=O)O)[C@@H](C)O)cc3)nc2)cc1` [Compound 645] is lower in EC50: 800 to 2500 nM for the first, under 800 nM for the second. The second is the more potent here.

`CC(C)COc1cc(-c2cnc(-c3ccc(C[C@H](NC(=O)c4ccc(C(C)(C)C)s4)C(=O)N[C@H](C)C(=O)O)cc3)nc2)cc(Cl)c1F` [Compound 1011] and `CC(C)Oc1cc(-c2cnc(-c3ccc(C[C@H](NC(=O)c4ccc(C(C)(C)C)s4)C(=O)N[C@H](C)C(=O)O)cc3)nc2)cc(Cl)c1OC(C)C` [Compound 1017] fall in the same range of EC50: 2500 to 5000 nM for the first, 2500 to 5000 nM for the second.

Compared with `CCCCCOc1ccc(-c2cnc(-c3ccc(C[C@H](NC(=O)c4ccc(C(C)(C)C)cc4)C(=O)NCCC(=O)O)cc3)nc2)cc1` [Compound 489], `CCCCCCCOc1ccc(-c2cnc(-c3ccc(C[C@H](NC(=O)c4ccc(C(C)(C)C)cc4)C(=O)N[C@@H](CC(=O)O)C(N)=O)cc3)nc2)cc1` [Compound 579] is lower in EC50: 800 to 2500 nM for the first, under 800 nM for the second.

First: CC[C@H]1CC[C@H](c2ccc(-c3cnc(-c4ccc(C[C@H](NC(=O)c5cc6cc(OC)ccc6[nH]5)C(=O)N5CC(C(=O)O)C5)cc4)nc3)cc2)CC1 [Compound 1166]
Second: CCCCCCCOc1ccc(-c2cnc(-c3ccc(C[C@H](NC(=O)c4cccc(C(C)(C)C)c4)C(=O)N4CC(C(=O)O)C4)cc3)nc2)cc1 [Compound 1122]
The EC50 of the first is lower: under 800 nM for the first, 5000 to 10000 nM for the second. The first is the more potent here.

First: CCCCCCCOc1ccc(-c2cnc(-c3ccc(C[C@H](NC(=O)c4ccc(C(C)(C)C)cc4)C(=O)N[C@@H](CCCCN)C(=O)O)cc3)nc2)cc1 [Compound 492]
Second: CCCCCCCOc1ccc(-c2cnc(-c3ccc(C[C@H](NC(=O)c4ccc(C(C)(C)C)cc4)C(=O)N[C@@H](CC(=O)N(C)C)C(=O)O)cc3)nc2)cc1 [Compound 478]
The EC50 of the first is higher: 5000 to 10000 nM for the first, under 800 nM for the second.

First: C[C@@H](NC(=O)[C@H](Cc1ccc(-c2ncc(-c3cc(OC(F)(F)F)ccc3F)cn2)cc1)NC(=O)c1ccc(C(C)(C)C)s1)C(=O)O [Compound 1026]
Second: C[C@@H](NC(=O)[C@H](Cc1ccc(-c2ncc(-c3ccc([C@H]4CC[C@@H](C(C)(C)C)CC4)cc3)cn2)cc1)NC(=O)c1ccc(C(C)(C)C)s1)C(=O)O [Compound 1144]
The EC50 of the first is higher: 2500 to 5000 nM for the first, 800 to 2500 nM for the second.

First: CCCCCCCOc1ccc(-c2cnc(-c3ccc(C[C@H](NC(=O)c4ccc(C(C)(C)C)s4)C(=O)N[C@@H](CC(=O)NS(C)(=O)=O)C(=O)O)cc3)nc2)cc1 [Compound 523]
Second: CCCCCCCOc1ccc(-c2cnc(-c3ccc(C[C@H](NC(=O)c4ccc(C(C)(C)C)s4)C(=O)NC4CCNC4)cc3)nc2)cc1 (stereo partly drawn) [Compound 984]
The EC50 of the first is lower: under 800 nM for the first, 2500 to 5000 nM for the second.

First: CC(C)CCSc1ccc(-c2cnc(-c3ccc(C[C@H](NC(=O)c4ccc(C(C)(C)C)cc4)C(=O)NCCC(=O)O)cc3)nc2)cc1 [Compound 681]
Second: CC(C)(C)c1ccc(COc2ccc(-c3cnc(-c4ccc(C[C@H](NC(=O)c5ccc(C(C)(C)C)cc5)C(=O)NCCC(=O)O)cc4)nc3)cc2)cc1 [Compound 713]
The EC50 of the first is higher: 5000 to 10000 nM for the first, 800 to 2500 nM for the second. The second is the more potent here.

`CCCCCCCOc1ccc(-c2cnc(-c3ccc(C[C@H](NC(=O)c4ccc(C(C)(C)C)s4)C(=O)N4CCC[C@H]4C(=O)O)cc3)nc2)nc1` [Compound 1064] and `CC(C)(C)c1ccc(-c2cnc(-c3ccc(C[C@H](NC(=O)c4ccc(C(C)(C)C)s4)C(=O)N4CC[C@H](C(=O)O)C4)cc3)nc2)cc1` [Compound 768] fall in the same range of EC50: 800 to 2500 nM for the first, 800 to 2500 nM for the second.

First: CCCCCCCOc1ccc(-c2cnc(-c3ccc(C[C@H](NC(=O)c4ccc(C(C)(C)C)cc4)C(=O)N[C@@H](Cc4ccccn4)C(=O)O)cc3)nc2)cc1 [Compound 542]
Second: CC(C)(C)c1ccc(C(=O)N[C@@H](Cc2ccc(-c3ncc(-c4ccc(OC5CCCC5)cc4)cn3)cc2)C(=O)NC(C(=O)O)C(O)c2ccccc2)s1 (stereo partly drawn) [Compound 929]
The EC50 of the first is lower: under 800 nM for the first, 5000 to 10000 nM for the second.
